Results published in PMC4182326, “Synthesis and Characterization of Novel 2-Amino-Chromene-Nitriles that Target Bcl-2 in Acute Myeloid Leukemia Cell Lines” (PLoS ONE, 2014).

What was measured:
Bcl-2 [1] = target: T1, Bcl-2 (Homo sapiens, UniProt P10415); assay: Zymed Bcl-2 ELISA; % inhibition of Bcl-2 binding to its antibody at […]
T1 construct: gene BCL2

Bcl-2 [2] = target: T1, Bcl-2; assay: Zymed Bcl-2 ELISA; inhibition of Bcl-2 binding to its antibody

T1 sequence (P10415 whole entry): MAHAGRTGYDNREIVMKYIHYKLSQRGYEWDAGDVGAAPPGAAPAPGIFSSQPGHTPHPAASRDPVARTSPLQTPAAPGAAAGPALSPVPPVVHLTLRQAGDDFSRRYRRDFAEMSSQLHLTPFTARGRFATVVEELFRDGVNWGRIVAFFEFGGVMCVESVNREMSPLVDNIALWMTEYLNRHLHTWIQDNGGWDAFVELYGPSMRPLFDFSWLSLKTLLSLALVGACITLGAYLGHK

Compound | inhibition at 30 µM (Bcl-2 [1]) [%] | IC50 (Bcl-2 [2]) [µM]
N#CC1=C(N)Oc2cc3ccccc3cc2C1c1cccc([N+](=O)[O-])c1 (stereo not shown) [4a, 2-amino-4-(3-nitrophenyl)-4H-benzo[g]chromene-3-carbonitrile] | 37.8 | –
N#CC1=C(N)Oc2cc3ccccc3cc2C1c1ccccc1[N+](=O)[O-] (stereo not shown) [4f, 2-amino-4-(2-nitrophenyl)-4H-benzo[g]chromene-3-carbonitrile] | 61.9 | –
N#CC1=C(N)Oc2cc3ccccc3cc2C1c1c(Cl)cccc1Cl (stereo not shown) [4g, 2-amino-4-(2,6-dichlorophenyl)-4H-benzo[g]chromene-3-carbonitrile] | – | 17.8
N#CC1=C(N)Oc2cc3ccccc3cc2C1c1ccc(F)cc1 (stereo not shown) [4h, 2-amino-4-(4-fluorophenyl)-4H-benzo[g]chromene-3-carbonitrile] | 53 | –
